Results as given in ChEMBL document CHEMBL1201862, “PubChem BioAssay data set” (2004).
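Five concentrations, 48 hours, 96-well plates. Abbreviation: GI50, concentration required for 50% inhibition of growth.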 The source made the active and inactive calls. Rule as the data show it: active = GI50 up to about 1.1 µM and inactive = higher.

Key:
Assay in all cases: DTP human tumour cell line panel, 48 h
K562 = test system: K562
LOX IMVI = test system: LOX IMVI
ACHN = test system: ACHN
MOLT-4 = test system: MOLT-4
U-251 = test system: U-251
SF-295 = test system: SF-295
HCC 2998 = test system: HCC 2998
SNB-75 = test system: SNB-75
OVCAR-8 = test system: OVCAR-8
SK-MEL-2 = test system: SK-MEL-2
M14 = test system: M14
SNB-19 = test system: SNB-19
SF-539 = test system: SF-539
OVCAR-3 = test system: OVCAR-3
IGROV-1 = test system: IGROV-1
786-0 = test system: 786-0
SW-620 = test system: SW-620

Measured: GI50

CCO/C=C/C(C)C1(C(=O)OCC)CCCCC1=O (configuration not stated)
inactive: K562 > 100 µM | LOX IMVI 45.9 µM | ACHN > 100 µM | MOLT-4 > 100 µM | U-251 > 100 µM | SF-295 > 100 µM | HCC 2998 > 100 µM | SNB-75 > 100 µM | OVCAR-8 > 100 µM | SK-MEL-2 > 100 µM | M14 > 100 µM | SNB-19 > 100 µM | SF-539 > 100 µM | OVCAR-3 > 100 µM | IGROV-1 > 100 µM | 786-0 56.8 µM

CCOC(=O)C1=C(Nc2ccc(Br)cc2)OCC1=O
inactive: ACHN > 100 µM | MOLT-4 > 100 µM | U-251 > 100 µM | SF-295 > 100 µM | HCC 2998 > 100 µM | SNB-75 > 100 µM | OVCAR-8 > 100 µM | SK-MEL-2 > 100 µM | SW-620 > 100 µM | M14 > 100 µM | SNB-19 > 100 µM | SF-539 > 100 µM | OVCAR-3 > 100 µM | IGROV-1 > 100 µM | 786-0 > 100 µM

Oc1ccc2c3c1OC1C(=NN=C4CCC5(O)C6Cc7ccc(O)c8c7C5(CCN6CC5CC5)C4O8)CCC4(O)C(C2)N(CC2CC2)CCC314 (configuration not stated)
inactive: K562 17.2 µM | LOX IMVI 20 µM | ACHN > 100 µM | MOLT-4 23.7 µM | U-251 17.7 µM | SF-295 17 µM | HCC 2998 21.5 µM | SNB-75 41.6 µM | OVCAR-8 28.5 µM | SK-MEL-2 13.9 µM | SW-620 20.8 µM | M14 18.3 µM | SNB-19 52.7 µM | SF-539 27.1 µM | OVCAR-3 18.5 µM | IGROV-1 > 100 µM | 786-0 24.9 µM

O=C1CCCC/C(=C/c2ccccc2)N1
inactive: K562 > 100 µM | LOX IMVI > 100 µM | ACHN > 100 µM | MOLT-4 > 100 µM | U-251 > 100 µM | SF-295 > 100 µM | HCC 2998 > 100 µM | SNB-75 56.6 µM | OVCAR-8 > 100 µM | SK-MEL-2 > 100 µM | SW-620 > 100 µM | M14 > 100 µM | SF-539 > 100 µM | OVCAR-3 > 100 µM | IGROV-1 > 100 µM | 786-0 > 100 µM

NC1=NN(c2ccccc2)C(=O)C1C(=O)C(=O)Nc1nccs1 (configuration not stated)
inactive: K562 > 100 µM | LOX IMVI > 100 µM | ACHN > 100 µM | MOLT-4 > 100 µM | U-251 > 100 µM | SF-295 > 100 µM | HCC 2998 > 100 µM | SNB-75 62.1 µM | OVCAR-8 > 100 µM | SK-MEL-2 > 100 µM | SW-620 > 100 µM | M14 > 100 µM | SNB-19 > 100 µM | SF-539 > 100 µM | OVCAR-3 > 100 µM | IGROV-1 > 100 µM | 786-0 > 100 µM

O=C(C(=O)N1CC2C=CC1CC2)c1c[nH]c2ccccc12 (configuration not stated)
inactive: K562 > 100 µM | LOX IMVI > 100 µM | ACHN > 100 µM | MOLT-4 > 100 µM | U-251 > 100 µM | SF-295 > 100 µM | HCC 2998 > 100 µM | SNB-75 82.4 µM | OVCAR-8 > 100 µM | SK-MEL-2 > 100 µM | SW-620 > 100 µM | M14 > 100 µM | SNB-19 > 100 µM | SF-539 > 100 µM | IGROV-1 > 100 µM | 786-0 > 100 µM

CC(=O)NC(CCCCNC(=O)NCCCl)C(=O)NCc1ccccc1 (configuration not stated)
inactive: K562 > 100 µM | ACHN > 100 µM | MOLT-4 > 100 µM | U-251 > 100 µM | SF-295 > 100 µM | HCC 2998 > 100 µM | SNB-75 > 100 µM | OVCAR-8 > 100 µM | SK-MEL-2 > 100 µM | SW-620 > 100 µM | M14 > 100 µM | SNB-19 > 100 µM | SF-539 > 100 µM | OVCAR-3 > 100 µM | 786-0 > 100 µM

O=C1O/C(=C(\Br)c2cccc3ccccc23)c2ccccc21
inactive: K562 25.2 µM | LOX IMVI 73.6 µM | ACHN 34.2 µM | MOLT-4 21.5 µM | U-251 > 100 µM | SF-295 > 38.1 µM | HCC 2998 > 65.3 µM | SNB-75 > 50.4 µM | OVCAR-8 > 43.7 µM | SK-MEL-2 > 42.8 µM | SW-620 27 µM | M14 > 44.2 µM | SF-539 48.1 µM | OVCAR-3 26.8 µM | IGROV-1 27.9 µM | 786-0 17.4 µM

Cc1ccc2nc(NC(=O)C(=O)C(C(=O)c3ccc4ccccc4c3)C3OC(=O)c4ccccc43)sc2c1 (configuration not stated)
inactive: LOX IMVI 10.2 µM | ACHN 16.5 µM | U-251 2.81 µM | SF-295 4.61 µM | HCC 2998 11.3 µM | OVCAR-8 7.74 µM | SK-MEL-2 14.4 µM | SW-620 5.86 µM | M14 15 µM | SNB-19 6.55 µM | SF-539 2.63 µM | OVCAR-3 22.9 µM | IGROV-1 14.9 µM | 786-0 6.15 µM

COc1ccc(-c2cc(=O)c3ccccc3[nH]2)c(OC)c1
inactive: K562 > 100 µM | LOX IMVI > 100 µM | ACHN > 100 µM | MOLT-4 > 100 µM | U-251 > 100 µM | SF-295 > 100 µM | HCC 2998 > 10 µM | SNB-75 > 100 µM | OVCAR-8 > 100 µM | SW-620 > 100 µM | M14 > 100 µM | SNB-19 > 100 µM | SF-539 > 100 µM | OVCAR-3 > 100 µM | IGROV-1 > 100 µM | 786-0 > 100 µM

CC(=O)O[C@H]1CC[C@@]2(C)C(=CC[C@@H]3C2CC[C@]2(C)Nc4[nH]ncc4CC32)C1 (some centres not stated)
inactive: K562 20.7 µM | ACHN > 100 µM | MOLT-4 15.4 µM | U-251 15 µM | SF-295 42.2 µM | HCC 2998 > 100 µM | SNB-75 85.9 µM | OVCAR-8 29.9 µM | SK-MEL-2 28.2 µM | SW-620 34.8 µM | M14 19.7 µM | SF-539 20 µM | OVCAR-3 19.2 µM | IGROV-1 75.5 µM | 786-0 > 100 µM

CC(C)(C)C1CC[C@H]2c3c([nH]c4ccc(Br)cc34)[C@H]3C(=O)N(c4ccccc4)C(=O)[C@H]3[C@H]2C1 (some centres not stated)
inactive: K562 11.5 µM | LOX IMVI 19.1 µM | ACHN > 100 µM | MOLT-4 15.6 µM | U-251 10.4 µM | SF-295 14 µM | HCC 2998 > 100 µM | SNB-75 18.5 µM | OVCAR-8 3.49 µM | SK-MEL-2 50.9 µM | SW-620 17.4 µM | M14 22 µM | SNB-19 23.6 µM | OVCAR-3 75.2 µM | IGROV-1 > 100 µM | 786-0 6.67 µM

CCC(C)Cn1c(C)nc2c1C(=O)c1ccccc1C2=O (configuration not stated)
inactive: K562 5.42 µM | LOX IMVI 19.4 µM | ACHN 36.1 µM | MOLT-4 2.91 µM | U-251 20.5 µM | SF-295 38.8 µM | HCC 2998 47.4 µM | SNB-75 28.6 µM | OVCAR-8 32.9 µM | SK-MEL-2 33.1 µM | SW-620 38.7 µM | M14 42.3 µM | SNB-19 53.6 µM | SF-539 17.7 µM | OVCAR-3 23.3 µM | IGROV-1 42.5 µM | 786-0 23.1 µM

CCCCCCCCCCCCOP(N)(=O)OCCCCCCCCCCCC
inactive: K562 > 100 µM | LOX IMVI > 100 µM | ACHN > 100 µM | MOLT-4 > 100 µM | U-251 > 100 µM | SF-295 > 100 µM | HCC 2998 > 100 µM | SNB-75 > 100 µM | OVCAR-8 > 100 µM | SW-620 > 100 µM | M14 > 100 µM | SNB-19 > 100 µM | SF-539 > 100 µM | OVCAR-3 > 100 µM | IGROV-1 > 100 µM | 786-0 > 100 µM

CC1(C)C(=O)C(C)(C)C1=S
inactive: K562 > 100 µM | LOX IMVI > 100 µM | ACHN > 100 µM | MOLT-4 > 100 µM | U-251 > 100 µM | SF-295 > 100 µM | HCC 2998 > 100 µM | SNB-75 18.6 µM | OVCAR-8 > 100 µM | SK-MEL-2 > 100 µM | SW-620 > 100 µM | M14 > 100 µM | SNB-19 > 100 µM | OVCAR-3 > 100 µM | IGROV-1 > 100 µM | 786-0 > 100 µM

CCOP(=O)(C/C(O)=C1\C(=O)C(CCCNC(=O)OC(C)(C)C)N(Cc2ccc(OC)c(OC)c2)C1=O)OCC (configuration not stated)
inactive: K562 > 100 µM | LOX IMVI > 100 µM | ACHN > 100 µM | MOLT-4 > 100 µM | U-251 > 100 µM | SF-295 > 100 µM | HCC 2998 > 100 µM | SNB-75 > 100 µM | OVCAR-8 > 100 µM | SK-MEL-2 > 100 µM | SW-620 > 100 µM | M14 > 100 µM | SNB-19 > 100 µM | SF-539 > 100 µM | OVCAR-3 > 100 µM | IGROV-1 > 100 µM | 786-0 > 100 µM

COC(C)(C)[C@H](O)C(O)CC(C)[C@@H]1CCC23CC12CCC1[C@@]2(C)CCC(OC(C)=O)C(C)(C)C2CC(OC2OC(COC(C)=O)C(O)C(O)C2O)[C@]13C (some centres not stated)
inactive: K562 2.34 µM | LOX IMVI 2.79 µM | ACHN 3.76 µM | MOLT-4 4.19 µM | U-251 2.67 µM | SF-295 3.21 µM | HCC 2998 1.57 µM | SNB-75 3.8 µM | OVCAR-8 4.56 µM | SK-MEL-2 9.29 µM | SW-620 5.35 µM | M14 2.77 µM | SNB-19 6.84 µM | SF-539 2.72 µM | OVCAR-3 3.29 µM | IGROV-1 2.56 µM | 786-0 6.58 µM
